For 8 compounds, Kd and IC50 results are on record in patent US9938261B2, “Heterocyclic compounds and methods of use thereof” (AMBIT BIOSCIENCES CORPORATION, priority 2011, dated 2018).

The target in test [1] is T1, CSF1R (Homo sapiens, UniProt P07333). The experiment in a line: Competition binding assay, CSF1R Kd. Also noted: made in house. The method, then: (§1) Competition binding assays used herein were developed, validated and performed as described in Fabian et al., Nature Biotechnology 2005, 23, 329-336. Kinases were produced as fusions to T7 phage (See, Fabian et al. or WO04/015142) or alternatively, the kinases were expressed in HEK-293 cells and subsequently tagged with DNA for PCR detection (See, WO08/005310). For the binding assays, streptavidin-coated magnetic beads were treated with biotinylated affinity ligands for 30 min at room temperature to generate affinity resins. The liganded beads were blocked with excess biotin and washed with blocking buffer (SeaBlock (Pierce), 1% BSA, 0.05% Tween 20, 1 mM DTT) to remove unbound ligand and to reduce non-specific binding. Binding reactions were assembled by combining kinase, liganded affinity beads, and test compounds in 1× binding buffer (20% SeaBlock, 0.17×PBS, 0.05% Tween 20, 6 mM DTT). Test compounds were prepared as 100× stocks in DMSO and diluted into the aqueous environment. Kds were determined using an eleven point threefold serial dilutions. DMSO or control compounds were was added to control assays lacking a test compound. Primary screen assays were performed in polypropylene 384-well plates in a final volume of 20-40 μL, while Kd determinations were performed in polystyrene 96-well plates in a final volume of 135 μL. The assay plates were incubated at room temperature with shaking for 1 hour to allow the binding reactions to reach equilibrium, and the affinity beads were washed extensively with wash buffer (1×PBS, 0.05% Tween 20) to remove unbound protein. The beads were then resuspended in elution buffer (1×PBS, 0.05% Tween […] non-biotinylated affinity ligand) and incubated at room temperature with shaking for 30 min. The kinase concentration in the eluates was measured by quantitative PCR.

Another test deals with T2, PDGFRβ (Homo sapiens, UniProt P09619).
T2 construct: made in house
As to the kind of experiment: Competition binding assay, PDGFRβ Kd. The method, then: as §1

The target in another test is T3, FLT3 (Homo sapiens, UniProt P36888).
T3 construct: made in house
T3 sequence (P36888 27-993): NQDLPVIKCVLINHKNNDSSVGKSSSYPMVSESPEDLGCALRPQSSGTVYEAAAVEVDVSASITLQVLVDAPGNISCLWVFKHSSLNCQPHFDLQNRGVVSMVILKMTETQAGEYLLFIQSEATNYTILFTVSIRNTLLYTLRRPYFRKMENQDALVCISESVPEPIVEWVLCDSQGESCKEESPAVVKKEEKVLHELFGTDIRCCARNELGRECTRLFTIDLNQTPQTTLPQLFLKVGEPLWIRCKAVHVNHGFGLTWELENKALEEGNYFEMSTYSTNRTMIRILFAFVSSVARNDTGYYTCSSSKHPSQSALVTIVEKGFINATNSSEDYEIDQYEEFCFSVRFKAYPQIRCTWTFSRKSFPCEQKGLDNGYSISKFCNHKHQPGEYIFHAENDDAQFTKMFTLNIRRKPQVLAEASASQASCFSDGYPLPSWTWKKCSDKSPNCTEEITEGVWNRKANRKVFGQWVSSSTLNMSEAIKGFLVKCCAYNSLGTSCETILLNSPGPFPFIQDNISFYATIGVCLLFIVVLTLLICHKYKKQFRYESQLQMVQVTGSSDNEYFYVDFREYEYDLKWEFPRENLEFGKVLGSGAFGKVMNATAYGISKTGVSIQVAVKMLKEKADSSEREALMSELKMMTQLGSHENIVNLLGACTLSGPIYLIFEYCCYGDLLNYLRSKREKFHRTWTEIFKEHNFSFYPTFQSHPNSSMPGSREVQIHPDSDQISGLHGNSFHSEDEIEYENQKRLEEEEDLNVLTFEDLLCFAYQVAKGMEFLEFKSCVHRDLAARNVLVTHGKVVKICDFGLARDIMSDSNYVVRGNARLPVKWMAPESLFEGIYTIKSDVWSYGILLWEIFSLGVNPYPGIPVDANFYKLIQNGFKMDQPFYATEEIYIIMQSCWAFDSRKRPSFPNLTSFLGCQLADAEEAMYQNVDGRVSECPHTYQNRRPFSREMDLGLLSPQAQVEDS
As to the kind of experiment: Competition binding assay, FLT3 Kd. The method, then:
as §1

For test [2], the target named is T1, CSF1R. As to the kind of experiment: HEK293 CSF1R phosphorylation MSD assay. Format: cell-based. Details: expressed in transfected cells; host or cells: HEK293. The conditions noted are these: read-out: HEK293 pCSF1R M-CSF MSD:IC50. The method, then:
The compounds disclosed herein were tested in a CSF1R phosphorylation assay to determine their cellular potency against CSF1R. A HEK293 cell line expressing CSF1R fused to FK506 binding protein (FKBP) as a molecular tag was generated. Inhibition of CSF1R kinase activity will prevent ligand-stimulated autophosphorylation of the CSF1R-FKBP in intact cells. Subsequent cell lysates are assayed in a sandwich ELISA employing the electrochemiluminescent Meso Scale Discovery (MSD) technology for the presence of the phosphorylated (p)CSF1R-FKBP. This assay determines the potency of compounds as CSF1R inhibitors by measuring the reduction in the amount of pCSF1R with increasing doses of compounds added to the cells prior to M-CSF stimulation.
On day one of the experiment, HEK293-CSF1R-FKPB cells, maintained in DMEM, with L-glutamine (Mediatech), 10% FBS, and 100 units/mL Penicillin/Streptomycin, were seeded at 50,000 cell/well in a volume of 100 μL per well in 96-well Cell Bind plates (Costar). The cells were cultured overnight at 37° C. under 5% CO2. To prepare the plates used in the MSD assay, a 330 nM biotin-FK506 (in TBS pH 7.2) solution was added at 30 μL per well to streptavidin-coated 96-well plates (MSD), and incubated overnight at room temperature, shaking at 500 rpm on an orbital shaker.
On day two, compounds diluted in DMSO were added to the cells in duplicate plates at 9 different concentrations with half-log intervals, plus DMSO only control, alongside a reference compound serving as a positive control. Final DMSO concentration was 0.5% in a volume of 200 μL per well. The compounds were allowed to incubate with the cells for 2 h at 37° C. under 5% CO2. At the end of the incubation, human M-CSF (R&D Systems) was added for 5 min to a final concentration of 50 ng/mL to stimulate CSF1R phosphorylation. Cells were lysed for 20 min, and the lysates were applied to the washed, FK506-coated MSD plates, and incubated overnight at 4° C. shaking at 500 rpm.
On day three, the MSD plates were washed, and the captured CSF1R-FKBP was assayed sequentially for phosphorylation using mouse anti-phosphotyrosine antibody (Millipore) and Sulfo-TAG goat anti-mouse IgG antibody (MSD), and detected on a Sector Imager 6000 instrument (MSD).
A single IC50 value for each compound was determined by averaging the IC50s of the duplicates calculated using Igor Pro 6 software, and represents the compound concentration that achieves a 50% inhibition of ligand-induced CSF1R phosphorylation compared to DMSO control.

The next test has as its system M-NFS-60 cells. The experiment in a line: M-NFS-60 cell proliferation assay (Alamar Blue). Format: cell-based, mouse. The conditions noted are these: Mus musculus, read-out: CSF1R M-NFS-60 CTB:IC50. As to the method:
The compounds disclosed herein were tested in an M-NFS-60 cell proliferation assay to determine their cellular potency against CSF1R. M-NFS-60s are mouse monocytic cells that depend on the binding of the ligand M-CSF to its receptor, CSF1R, to proliferate. Inhibition of CSF1R kinase activity will cause reduced growth and/or cell death. This assay assesses the potency of compounds as CSF1R inhibitors by measuring the reduction of Alamar Blue reagent by viable cells.
On day one of the experiment, M-NFS-60 cells were maintained in RPMI complete medium (Omega Scientific) plus 10% FBS supplemented with 20 ng/mL of M-CSF (R&D Systems). 96-well TC-treated, flat bottom plates were seeded at 10,000 cell/well at a volume of 100 μL per well. The cells were cultured overnight at 37° C. under 5% CO2.
On day two, compounds were added to the cells at 9 different concentrations, with half-log intervals alongside a control reference compound serving as a positive control. Final DMSO concentration was kept at 0.5% for a final volume of 200 μL. The compounds were allowed to incubate with the cells for 72 hours at 37° C. under 5% CO2.
On day five of the experiment, 40 μl of Alamar Blue reagent was added to each well and allowed to incubate for 3 hours. Alamar Blue fluorescence was read using SoftMax Pro software at 560 nm (excitation) and 590 nm (emission). IC50s were generated as an average of duplicates and represents the concentration of test compound that achieves 50% inhibition of cellular proliferation compared to control.

Another test concerns the target T4, KIT (Homo sapiens, UniProt P10721).
T4 construct: made in house
The experiment in a line: Competition binding assay, KIT Kd. As to the method: as §1

The mark [3] stands for this setting: 2 h compound, human M-CSF 50 ng/mL for 5 min.
The mark [4] stands for this setting: 72 hours incubation, M-CSF 20 ng/mL.

Structures are written as SMILES. Like-named read-outs stand apart in the source and are kept apart here. Bounds are passed on as bounds.

T4 sequence (P10721 26-976): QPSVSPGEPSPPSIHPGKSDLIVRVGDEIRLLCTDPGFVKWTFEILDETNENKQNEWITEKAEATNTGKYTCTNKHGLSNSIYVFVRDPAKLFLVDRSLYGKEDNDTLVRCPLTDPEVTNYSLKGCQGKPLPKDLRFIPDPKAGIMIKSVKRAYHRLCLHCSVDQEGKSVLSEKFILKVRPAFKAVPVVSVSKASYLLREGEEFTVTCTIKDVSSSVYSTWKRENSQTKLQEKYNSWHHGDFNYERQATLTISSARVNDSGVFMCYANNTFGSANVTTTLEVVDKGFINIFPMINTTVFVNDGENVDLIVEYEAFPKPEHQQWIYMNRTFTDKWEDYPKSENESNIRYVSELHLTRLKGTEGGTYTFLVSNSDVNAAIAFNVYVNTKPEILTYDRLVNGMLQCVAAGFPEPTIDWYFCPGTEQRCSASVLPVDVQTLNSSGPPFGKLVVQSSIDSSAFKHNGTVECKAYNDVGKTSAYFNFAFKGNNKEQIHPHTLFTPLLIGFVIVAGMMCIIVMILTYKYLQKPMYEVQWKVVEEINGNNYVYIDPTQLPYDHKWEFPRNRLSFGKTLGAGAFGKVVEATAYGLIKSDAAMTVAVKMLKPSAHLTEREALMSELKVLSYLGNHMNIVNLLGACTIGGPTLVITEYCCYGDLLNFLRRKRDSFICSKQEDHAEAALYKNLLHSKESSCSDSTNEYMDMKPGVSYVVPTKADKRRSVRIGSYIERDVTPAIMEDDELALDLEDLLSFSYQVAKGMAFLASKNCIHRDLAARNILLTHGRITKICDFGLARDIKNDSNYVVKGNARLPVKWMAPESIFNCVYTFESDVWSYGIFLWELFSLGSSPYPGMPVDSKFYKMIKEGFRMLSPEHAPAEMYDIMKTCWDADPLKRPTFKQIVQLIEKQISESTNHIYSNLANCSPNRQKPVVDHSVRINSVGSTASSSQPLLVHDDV
T1 sequence (P07333 20-972): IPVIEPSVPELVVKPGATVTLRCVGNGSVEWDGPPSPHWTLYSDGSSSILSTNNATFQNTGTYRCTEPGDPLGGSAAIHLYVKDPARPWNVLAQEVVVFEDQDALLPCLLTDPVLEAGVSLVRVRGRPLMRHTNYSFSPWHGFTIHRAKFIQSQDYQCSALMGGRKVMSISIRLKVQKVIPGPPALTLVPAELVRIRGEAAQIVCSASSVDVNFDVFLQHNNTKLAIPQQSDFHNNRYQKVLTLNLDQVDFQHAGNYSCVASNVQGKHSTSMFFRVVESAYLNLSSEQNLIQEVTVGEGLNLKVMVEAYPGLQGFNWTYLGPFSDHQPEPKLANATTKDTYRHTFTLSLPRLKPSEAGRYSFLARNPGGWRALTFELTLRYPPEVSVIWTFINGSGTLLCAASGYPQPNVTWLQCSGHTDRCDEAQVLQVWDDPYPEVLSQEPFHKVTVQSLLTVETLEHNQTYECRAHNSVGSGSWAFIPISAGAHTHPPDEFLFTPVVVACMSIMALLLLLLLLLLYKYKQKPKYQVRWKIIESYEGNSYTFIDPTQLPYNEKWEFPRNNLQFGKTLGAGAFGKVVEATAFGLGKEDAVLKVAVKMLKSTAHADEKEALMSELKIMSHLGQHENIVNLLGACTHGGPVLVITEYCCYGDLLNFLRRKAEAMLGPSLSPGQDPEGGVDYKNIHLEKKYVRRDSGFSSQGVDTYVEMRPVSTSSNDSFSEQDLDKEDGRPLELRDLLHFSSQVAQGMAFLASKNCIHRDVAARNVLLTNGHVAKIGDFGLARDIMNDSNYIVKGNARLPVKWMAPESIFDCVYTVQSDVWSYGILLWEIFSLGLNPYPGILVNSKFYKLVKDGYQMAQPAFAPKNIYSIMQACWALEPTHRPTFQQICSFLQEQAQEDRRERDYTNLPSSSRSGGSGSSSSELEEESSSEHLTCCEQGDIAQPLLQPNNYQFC
T2 sequence (P09619 33-1106): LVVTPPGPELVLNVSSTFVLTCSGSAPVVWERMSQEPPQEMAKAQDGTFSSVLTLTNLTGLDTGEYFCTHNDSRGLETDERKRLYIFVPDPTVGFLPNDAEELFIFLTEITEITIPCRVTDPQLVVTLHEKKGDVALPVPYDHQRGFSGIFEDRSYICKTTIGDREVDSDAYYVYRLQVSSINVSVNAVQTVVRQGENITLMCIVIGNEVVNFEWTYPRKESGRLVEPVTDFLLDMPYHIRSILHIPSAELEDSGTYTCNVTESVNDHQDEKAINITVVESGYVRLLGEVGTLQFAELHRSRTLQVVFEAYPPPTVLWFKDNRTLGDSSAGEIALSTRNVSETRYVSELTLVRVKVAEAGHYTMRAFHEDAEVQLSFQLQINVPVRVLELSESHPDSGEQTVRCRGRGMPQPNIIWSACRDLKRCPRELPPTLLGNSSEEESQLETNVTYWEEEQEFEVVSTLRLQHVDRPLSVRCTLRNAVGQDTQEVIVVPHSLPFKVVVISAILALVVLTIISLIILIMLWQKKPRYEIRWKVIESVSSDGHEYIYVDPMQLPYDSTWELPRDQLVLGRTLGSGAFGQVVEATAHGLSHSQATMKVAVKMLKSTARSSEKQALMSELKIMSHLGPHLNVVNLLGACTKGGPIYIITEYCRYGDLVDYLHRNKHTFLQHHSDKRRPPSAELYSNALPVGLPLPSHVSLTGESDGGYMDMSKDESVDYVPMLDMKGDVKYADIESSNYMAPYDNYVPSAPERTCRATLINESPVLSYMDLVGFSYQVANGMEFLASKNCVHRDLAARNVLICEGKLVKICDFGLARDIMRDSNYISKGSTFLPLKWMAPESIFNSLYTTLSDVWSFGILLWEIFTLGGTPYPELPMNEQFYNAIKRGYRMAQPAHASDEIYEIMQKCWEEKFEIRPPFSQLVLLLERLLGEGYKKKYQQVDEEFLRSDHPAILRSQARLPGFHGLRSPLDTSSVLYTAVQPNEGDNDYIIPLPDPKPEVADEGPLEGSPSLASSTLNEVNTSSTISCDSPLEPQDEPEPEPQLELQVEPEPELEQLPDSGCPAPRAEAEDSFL

Take `COC(c1ccc2nc(N[C@@H]3CCCC[C@H]3O)sc2c1)c1c[nH]c2ncccc12` (stereo partly drawn) [Example 12, (1R,2R)-2-((6-(methoxy(1H-pyrrolo[2,3-b]pyridin-3-yl)methyl)benzo[d]thiazol-2-yl)amino)cyclohexanol]: the Kd at CSF1R [1] was over 50 nM; on PDGFRβ, over 2000 nM; on FLT3, 1000 to 5000 nM; on KIT it was over 2000 nM. For the same compound, the values for the IC50 at CSF1R [2] (setting [3]) and with M-NFS-60 cells (setting [4]) were 200 to 500 nM and over 1500 nM, respectively.
As to `O[C@@H]1CCCC[C@H]1Nc1nc2ccc(Cn3cnc4cc(C5=CCOCC5)ccc43)cc2s1` [Example 174, (1R,2R)-2-((6-((5-(3,6-dihydro-2H-pyran-4-yl)-1H-benzo[d]imidazol-1-yl)methyl)benzo[d]thiazol-2-yl)amino)cyclohexanol], the Kd at CSF1R [1] (competition binding) was at most 5 nM; on PDGFRβ (competition binding), at most 50 nM; on FLT3 (competition binding), at most 200 nM; at KIT (competition binding) it was at most 100 nM. Moreover, the IC50 is at most 50 nM on CSF1R [2] (HEK293 cells, M-CSF stimulated CSF1R phosphorylation, MSD) and at most 50 nM in the test on M-NFS-60 cells (M-NFS-60 cell proliferation).
As for `O[C@@H]1CCCC[C@H]1Nc1nc2ccc(Cn3cnc4cc(Br)cnc43)cc2s1` [Example 29, (1R,2R)-2-((6-((6-bromo-3H-imidazo[4,5-b]pyridin-3-yl)methyl)benzo[d]thiazol-2-yl)amino)cyclohexanol], the Kd at CSF1R [1] was 5 to 20 nM; on PDGFRβ, 50 to 500 nM; at FLT3, 200 to 1000 nM; at KIT, at most 100 nM. The results for the IC50 on CSF1R [2] (setting [3]) and in the test with M-NFS-60 cells (setting [4]) were at most 50 nM and 50 to 400 nM, respectively.
In the case of `COc1cc2ncn(Cc3ccc4nc(NC5CCN(C(C)=O)CC5)sc4c3)c2cc1OC` [Example 24, 1-(4-((6-((5,6-dimethoxy-1H-benzo[d]imidazol-1-yl)methyl)benzo[d]thiazol-2-yl)amino)piperidin-1-yl)ethanone acetic acid], the Kd on CSF1R [1] was over 50 nM; on PDGFRβ, over 2000 nM; at FLT3, over 5000 nM; at KIT, over 2000 nM. Also, the IC50 was over 500 nM on CSF1R [2] (setting [3]) and over 1500 nM with M-NFS-60 cells (setting [4]).
As for `O[C@H]1CCCCC1Nc1nc2ccc(Cn3cnc4ccccc43)cc2s1` (stereo in doubt) [Example 7, (1S,2S)-2-((6-((1H-benzo[d]imidazol-1-yl)methyl)benzo[d]thiazol-2-yl)amino)cyclohexanol], the Kd is 5 to 20 nM at CSF1R [1], at most 50 nM on PDGFRβ, 200 to 1000 nM on FLT3 and 100 to 500 nM on KIT. In addition, the IC50 was in the range of 50 to 200 nM at CSF1R [2] (setting [3]) and 400 to 1500 nM with M-NFS-60 cells (setting [4]).
As to `O[C@@H]1Cc2ccccc2[C@H]1Nc1nc2ccc(Cn3cnc4cncnc43)cc2s1` [Example 95, (1R,2R)-1-((6-((9H-purin-9-yl)methyl)benzo[d]thiazol-2-yl)amino)-2,3-dihydro-1H-inden-2-ol], the Kd is at most 5 nM at CSF1R [1], at most 50 nM at PDGFRβ, over 5000 nM at FLT3 and 500 to 2000 nM at KIT. The IC50 at CSF1R [2] (setting [3]) lay in the range of 50 to 200 nM; in the test with M-NFS-60 cells (setting [4]), 50 to 400 nM.
For the compound `O[C@@H]1CCCC[C@H]1Nc1nc2ccc(Cn3cnc4ccc(Br)nc43)cc2s1` [Example 78, (1R,2R)-2-((6-((5-bromo-3H-imidazo[4,5-b]pyridin-3-yl)methyl)benzo[d]thiazol-2-yl)amino)cyclohexanol], the Kd at CSF1R [1] is 5 to 20 nM; at PDGFRβ, at most 50 nM; on FLT3, at most 200 nM; on KIT, at most 100 nM. Besides, the IC50 on CSF1R [2] (setting [3]) and in the test with M-NFS-60 cells (setting [4]) was at most 50 nM each time.
Turning to `COc1cc2ncn(Cc3ccc4nc(N[C@@H]5c6ccccc6C[C@H]5O)sc4c3)c2cc1OC` [Example 19, (1R,2R)-1-((6-((5,6-dimethoxy-1H-benzo[d]imidazol-1-yl)methyl)benzo[d]thiazol-2-yl)amino)-2,3-dihydro-1H-inden-2-ol], the Kd at CSF1R [1] was at most 5 nM; at PDGFRβ, 50 to 500 nM; on FLT3, 1000 to 5000 nM; at KIT it was 100 to 500 nM. For the same compound, the IC50 on CSF1R [2] (setting [3]) was in the range of 50 to 200 nM; in the test with M-NFS-60 cells (setting [4]), 50 to 400 nM.
